Legend:
P-gp and MMP9 = experiment: Immunoprecipitation/IFA of P-gp with MMP9 in HBMVEC; assay type: cell-based, human; details: 1 μM for 5 minutes
Description: FIG. 8A is a schematic diagram of the experimental procedure for analysis of Lexiscan®'s effect on P-gp solubility and excretion in primary brain endothelial cells (“HBMVEC”). FIGS. 8B-8C are western blots and graphs summarizing the experimental result of each western blot. FIGS. 8B-8C show the analysis of P-gp expression of HBMVEC upon activation with Lexiscan® at different time points after lysis with RIPA buffer (FIG. 8B) or CSK buffer to measure P-gp levels in the cytoskeletal fraction (FIG. 8C). Band intensity was normalized to GAPDH and graphed. […] Band intensity was normalized using GAPDH and plotted. FIG. 8E is a western blot of secreted P-gp in HBMVEC upon activation with Lexiscan® in absence or presence of an MMP9 inhibitor: both short and long exposures of western blot from MMP9 inhibitor-treated samples are shown. Band intensity was plotted as a graph. FIG. 8F is a western blot showing the results of an Immunoprecipitation assay of MMP9 with lysate from HBMVEC treated with vehicle (control) or 1 μM of Lexiscan® for 5 minutes. P-gp was pulled down using anti-P-gp antibody and immunoblotted with an anti-MMP9 antibody. […] FIG. 8H is a graph summarizing the intensity of fluorescence of MMP9 from FIG. 8G. Fluorescent intensity of MMP9 was quantified and plotted as graph (n=20). **P<0.01 (2-tailed Student's t test, 1 representative result of 3 different experiments). […]

P-gp [1] = experiment: Ubiquitination of P-gp in primary human brain endothelial cells (immunoprecipitation, IFA); assay type: cell-based; details: 15 minutes
Description: FIG. 10A is a western blot showing immunoprecipitation analysis of ubiquitination of P-gp in human primary brain endothelial cells upon activation with Lexiscan® for 15 minutes. P-gp was pulled down with an anti-P-gp antibody and immunoblotted with an anti-ubiquitin antibody. FIG. 10B are immunofluorescence microscopy images depicting ubiquitination of P-gp in human primary brain endothelial cells upon activation with Lexiscan® for 15 minutes. Cells were fixed, permeabilized, and stained with an anti-P-gp (green) and anti-ubiquitin (red) antibody. Nucleus was counterstained with DAPI (blue). The scale bar indicates 25 μm. FIG. 10C is a schematic diagram depicting the mechanism of P-gp down-regulation by Lexiscan®. Upon activation of A2A AR, P-gp is cleaved by MMP9 and secreted to the extracellular space (a), or ubiquitinated and digested by proteasome (b), or can relocate from the soluble fraction to the insoluble fraction (c). These mechanisms may occur independently or in combination.
4 G Sepharose beads were purchased from Invitrogen and incubated with human P-gp antibody (BD Biosciences) overnight at 4° C. using a rocking shaker. Beads were washed twice using lysis buffer containing protease inhibitor, and lysates from primary brain endothelial cells were incubated overnight at 4° C. using a rocking shaker. […]

MMP9 = MMP9 in mouse brain endothelial cells after intravenous injection (IFA); assay type: in vivo; details: 0.05 mg/kg i.v.; 5 minutes
Description: Vehicle control (DMSO) or 0.05 mg/kg of Lexiscan® was injected intravenously into mice. Five minutes later, mice were sacrificed and frozen sections of the brain were stained with anti-MMP9 (red) or anti-GLUT-1 (green) antibodies. Nucleus was counterstained with DAPI (blue). The scale bar indicates 50 μm.

P-gp [2] = experiment: Rho123 accumulation in MCF7 breast cancer cells; assay type: cell-based, human; details: 0.025 μM Lexiscan® concomitant with Rho123, vs vehicle control
P-gp [3] = experiment: P-gp expression in intestinal organoids (mean fluorescence intensity); assay type: cell-based; details: organoids from C57BL6 mouse intestine; 1 μM; 15 minutes
Description: Freshly isolated intestines from wildtype […] mice were cultured and grown to confluency to generate Organoids, which are 3D organotypic cultures derived from primary intestinal tissues (either tissue subunits or single cells), embryonic stem cells (“ESCs”), and induced pluripotent stem cells (“iPSCs”). Organoids were treated with 1 μM Lexiscan® or A1193 (A2A AR agonist) for 15 minutes, washed, and stained with antibodies to P-gp and DAPI. Mean fluorescent intensity was measured in each organoid. Data presented as a measure of P-gp expression between the two agonists. *=significance where P<0.05.
Applicants next evaluated whether A2A AR agonists can modulate P-gp expression in gut epithelial cells. Freshly isolated intestines from wildtype C57BL6 mice were cultured and grown to confluency to generate Organoids, which are three-dimensional organotypic cultures derived from primary intestinal tissues (either tissue subunits or single cells), embryonic stem cells (“ESCs”), or induced pluripotent stem cells (“iPSCs”). Organoids were treated with the A2A AR agonists Lexiscan® or A1193 for 15 minutes, washed, and stained with antibodies to P-gp and DAPI.

CNC(=O)c1cnn(-c2nc(N)c3ncn([C@@H]4O[C@H](CO)[C@@H](O)[C@H]4O)c3n2)c1 [Lexiscan®, 1-[6-amino-9-[(2R,3R,4S,5R)-3,4-dihydroxy-5-(hydroxymethyl)oxolan-2-yl]purin-2-yl]-N-methylpyrazole-4-carboxamide]
Interaction between P-gp and MMP9 (P-gp and MMP9): induced rapid interaction between P-gp and MMP9
Ubiquitinylation of P-gp (P-gp [1]): induced increased ubiquitinylation of P-gp compared with vehicle control
MMP9 in mouse brain endothelial cells (MMP9): rapid increase of MMP9
Rho123 accumulation (P-gp [2]): significant Rho123 accumulation occurred by 15 minutes and 60 minutes
P-gp expression (mean fluorescent intensity) (P-gp [3]): significantly down-regulates P-gp expression in freshly isolated and cultured colonic organoids

From US10953015B2, “Use of adenosine receptor signaling to regulate P-gp function” (CORNELL UNIVERSITY, priority 2016, dated 2021)
